pEC50: −log10 of the molar value.
Assays:
[1] = Cytotoxicity against human CEM-SS cells by XTT method; format: cell-based; conditions: read-out: TC50 (the source's name)
[2] = system: Human immunodeficiency virus 1; assay: Antiviral activity against HIV-1 subtype B US/92/727 infected in PBMC assessed as inhibition of viral replication after 7 days by XTT assay; format: functional, organism-based; conditions: Human immunodeficiency virus 1, subtype B US/92/727, 168 h
[3] = system: Human immunodeficiency virus 1; assay: Antiviral activity against HIV-1 subtype 3B infected in CEM-SS cells assessed as inhibition of viral replication after 6 days by XTT assay; format: functional, organism-based; conditions: Human immunodeficiency virus 1, subtype 3B, 144 h
[4] = Therapeutic index, ratio of TC50 for human CEM-SS cells to EC50 for HIV-1 subtype 3B infected in CEM-SS cells; format: cell-based; conditions: uninfected and infected with HIV-1 subtype 3B, read-out: TI
[5] = Therapeutic index, ratio of TC50 for human PBMC to EC50 for HIV-1 subtype B US/92/727 infected in PBMC; conditions: uninfected and infected with HIV-1 subtype B US/92/727, read-out: TI
[6] = Cytotoxicity against human PBMC; format: cell-based; conditions: read-out: TC50 (the source's name)
[7] = system: Human immunodeficiency virus 1; assay: Ratio of FLT EC50 to compound EC50 for HIV-1 subtype 3B infected in CEM-SS cells; format: functional
[8] = system: Human immunodeficiency virus 1; assay: Ratio of FLT EC50 to compound EC50 for HIV-1 subtype B US/92/727 infected in PBMC; format: functional
[9] = system: Human immunodeficiency virus 1; assay: Ratio of AZT EC50 to compound EC50 for HIV-1 subtype B US/92/727 infected in PBMC; format: functional
[10] = system: Human immunodeficiency virus 1; assay: Ratio of 3TC EC50 to compound EC50 for HIV-1 subtype 3B infected in CEM-SS cells; format: functional
[11] = system: Human immunodeficiency virus 1; assay: Ratio of 3TC EC50 to compound EC50 for HIV-1 subtype B US/92/727 infected in PBMC; format: functional

Cc1cn([C@H]2C[C@H](N=[N+]=[N-])[C@@H](COC(=O)CCCCCCCCCCCCC(=O)OC[C@H]3O[C@@H](n4cc(C)c(=O)[nH]c4=O)C[C@@H]3N=[N+]=[N-])O2)c(=O)[nH]c1=O
CC50 [1]: > 1 µM
pEC50 [2]: 8.52
pEC50 [3]: 8.52
selectivity ratio [4]: > 333
selectivity ratio [5]: > 333
CC50 [6]: > 1 µM

Cc1cn([C@H]2C[C@H](F)[C@@H](COC(=O)CCCCCCCCC(=O)OC[C@H]3O[C@@H](n4cc(C)c(=O)[nH]c4=O)C[C@@H]3F)O2)c(=O)[nH]c1=O
CC50 [1]: > 1 µM
pEC50 [2]: 9.00
pEC50 [3]: 8.40
selectivity ratio [4]: > 250
Ratio EC50 [7]: 5
selectivity ratio [5]: > 1000
CC50 [6]: > 1 µM

Nc1ccn([C@@H]2CS[C@H](CO)O2)c(=O)n1 [LAMIVUDINE]
CC50 [1]: > 0.5 µM
pEC50 [2]: 7.05
pEC50 [3]: 6.70
selectivity ratio [4]: > 2.5
selectivity ratio [5]: > 5.6
CC50 [6]: > 0.5 µM

Cc1cn([C@H]2C[C@H](N=[N+]=[N-])[C@@H](COC(=O)CCCCCCCCC(=O)OC[C@H]3O[C@@H](n4cc(C)c(=O)[nH]c4=O)C[C@@H]3N=[N+]=[N-])O2)c(=O)[nH]c1=O
CC50 [1]: > 1 µM
pEC50 [2]: 8.40
pEC50 [3]: 8.30
selectivity ratio [4]: > 200
selectivity ratio [5]: > 250
CC50 [6]: > 1 µM

Cc1cn([C@H]2C[C@H](N=[N+]=[N-])[C@@H](CO)O2)c(=O)[nH]c1=O [ZIDOVUDINE]
CC50 [1]: > 0.5 µM
pEC50 [2]: 8.10
pEC50 [3]: 8.70
selectivity ratio [4]: > 250
selectivity ratio [5]: > 125
CC50 [6]: > 1 µM

Nc1ccn([C@@H]2CS[C@H](COC(=O)CCCCCCCCCCC(=O)OC[C@@H]3O[C@H](n4ccc(N)nc4=O)CS3)O2)c(=O)n1
CC50 [1]: > 1 µM
pEC50 [2]: 7.70
pEC50 [3]: 8.05
selectivity ratio [4]: > 333
selectivity ratio [5]: > 50
CC50 [6]: > 1 µM

Cc1cn([C@H]2C[C@H](F)[C@@H](COC(=O)CCCCCCCCCCC(=O)OC[C@H]3O[C@@H](n4cc(C)c(=O)[nH]c4=O)C[C@@H]3F)O2)c(=O)[nH]c1=O
CC50 [1]: > 1 µM
Ratio EC50 [8]: 2
pEC50 [2]: 9.01
pEC50 [3]: 8.40
selectivity ratio [4]: > 250
Ratio EC50 [7]: 5
selectivity ratio [5]: > 1030
CC50 [6]: > 1 µM

Nc1ccn([C@@H]2CS[C@H](COC(=O)CCC(=O)OC[C@@H]3O[C@H](n4ccc(N)nc4=O)CS3)O2)c(=O)n1
CC50 [1]: > 1 µM
pEC50 [2]: 6.82
pEC50 [3]: 6.89
selectivity ratio [4]: > 7.7
selectivity ratio [5]: > 7
CC50 [6]: > 1 µM

Cc1cn([C@H]2C[C@H](F)[C@@H](COC(=O)CCCCCCCCCCCCC(=O)OC[C@H]3O[C@@H](n4cc(C)c(=O)[nH]c4=O)C[C@@H]3F)O2)c(=O)[nH]c1=O
CC50 [1]: > 1 µM
Ratio EC50 [8]: 2
pEC50 [2]: 9.12
pEC50 [3]: 8.52
selectivity ratio [4]: > 333
Ratio EC50 [7]: 5
selectivity ratio [5]: > 1320
CC50 [6]: > 1 µM

Cc1cn([C@H]2C[C@H](F)[C@@H](CO)O2)c(=O)[nH]c1=O [ALOVUDINE]
CC50 [1]: > 0.5 µM
Ratio EC50 [9]: 45
pEC50 [2]: 8.70
pEC50 [3]: 7.70
selectivity ratio [4]: > 25
Ratio EC50 [7]: 4
selectivity ratio [5]: > 250
CC50 [6]: > 0.5 µM

Nc1ccn([C@@H]2CS[C@H](COC(=O)CCCCCCCCCCCCC(=O)OC[C@@H]3O[C@H](n4ccc(N)nc4=O)CS3)O2)c(=O)n1
Ratio EC50 [10]: 3
CC50 [1]: > 1 µM
pEC50 [2]: 7.52
Ratio EC50 [11]: 3
pEC50 [3]: 8.52
selectivity ratio [4]: > 333
selectivity ratio [5]: > 33
CC50 [6]: > 1 µM

Nc1ccn([C@@H]2CS[C@H](COC(=O)CCCCCCCCC(=O)OC[C@@H]3O[C@H](n4ccc(N)nc4=O)CS3)O2)c(=O)n1
Ratio EC50 [10]: 1.5
CC50 [1]: > 1 µM
pEC50 [2]: 7.22
Ratio EC50 [11]: 1.5
pEC50 [3]: 7.52
selectivity ratio [4]: > 33
selectivity ratio [5]: > 17
CC50 [6]: > 1 µM

Cc1cn([C@H]2C[C@H](N=[N+]=[N-])[C@@H](COC(=O)CCCCCCCCCCC(=O)OC[C@H]3O[C@@H](n4cc(C)c(=O)[nH]c4=O)C[C@@H]3N=[N+]=[N-])O2)c(=O)[nH]c1=O
CC50 [1]: > 1 µM
pEC50 [2]: 8.70
pEC50 [3]: 8.40
selectivity ratio [4]: > 250
selectivity ratio [5]: > 500
CC50 [6]: > 1 µM
